Results on 14 compounds are retold here after US12558357B2, “Tetrahydroquinazoline derivatives as selective cytotoxic agents” (Merck Sharp & Dohme LLC, priority 2020, dated 2026).

The EC50 is the concentration that produces a half-maximal response.

The test system of the assay is PBMCs infected with VSV-G pseudotyped HIV virus (VSV-G/pNLG1-P2A-ΔEnv). Briefly: cells. The assay is classed as cell-based, human. The note with it: Homo sapiens, PBMC, read-out: EC50 (HIV-TACK cell kill activity).
As to `O=C1Nc2cc(Cn3cnc(C(F)(F)F)cc3=O)c(F)cc2[C@@](C#CC2CC2)(C(F)(F)F)N1` [Example 38, (S)-4-(cyclopropylethynyl)-6-fluoro-7-((6-oxo-4-(trifluoromethyl)pyrimidin-1(6H)-yl)methyl)-4-(trifluoromethyl)-3,4-dihydroquinazolin-2(1H)-one], the EC50 stood at 87 nM.

`O=C1Nc2cc(Cn3cnc(CO)cc3=O)ccc2[C@@](C#CC2CC2)(C(F)(F)F)N1` [Example 63, (S)-4-(cyclopropylethynyl)-7-((4-(hydroxymethyl)-6-oxopyrimidin-1(6H)-yl)methyl)-4-(trifluoromethyl)-3,4-dihydroquinazolin-2(1H)-one]: the EC50 was 145 nM.

Take `Cc1cc(=O)n(Cc2cc3c(cc2F)[C@@](C#CC2CC2)(C(F)(F)F)NC(=O)N3)cn1` [Example 43, (S)-4-(cyclopropylethynyl)-6-fluoro-7-((4-methyl-6-oxopyrimidin-1(6H)-yl)methyl)-4-(trifluoromethyl)-3,4-dihydroquinazolin-2(1H)-one]: the EC50 amounted to 50 nM.

In the case of `Nc1cncn(Cc2cc3c(cc2F)[C@@](C#CC2CC2)(C(F)(F)F)NC(=O)N3)c1=O` [Example 5, (S)-7-((5-amino-6-oxopyrimidin-1(6H)-yl)methyl)-4-(cyclopropylethynyl)-6-fluoro-4-(trifluoromethyl)-3,4-dihydroquinazolin-2(1H)-one], the 50% effective concentration (EC50) stood at 35 nM.

Regarding `Nc1nc(Cl)cn(Cc2ccc3c(c2)NC(=O)N[C@]3(C#CC2CC2)C(F)(F)F)c1=O` [Example 68, (S)-7-((3-amino-5-chloro-2-oxopyrazin-1(2H)-yl)methyl)-4-(cyclopropylethynyl)-4-(trifluoromethyl)-3,4-dihydroquinazolin-2(1H)-one], the EC50 turned out to be 71 nM.

Regarding `Nc1cccn(Cc2cc3c(cc2F)[C@@](C#CC2CC2)(C(F)(F)F)NC(=O)N3)c1=O` [Example 39, (S)-7-((3-amino-2-oxopyridin-1(2H)-yl)methyl)-4-(cyclopropylethynyl)-6-fluoro-4-(trifluoromethyl)-3,4-dihydroquinazolin-2(1H)-one], the EC50 came out at 72 nM.

Regarding `COCc1cc(=O)n(Cc2cc3c(cc2Cl)[C@@](C#CC2CC2)(C(F)(F)F)NC(=O)N3)cn1` [Example 61, (S)-6-chloro-4-(cyclopropylethynyl)-7-((4-(methoxymethyl)-6-oxopyrimidin-1(6H)-yl)methyl)-4-(trifluoromethyl)-3,4-dihydroquinazolin-2(1H)-one], the EC50 was determined as 38 nM.

Turning to `COCc1cc(=O)n(Cc2ccc3c(c2)NC(=O)N[C@]3(C#CC2CC2)C(F)(F)F)cn1` [Example 31, (S)-4-(cyclopropylethynyl)-7-((4-(methoxymethyl)-6-oxopyrimidin-1(6H)-yl)methyl)-4-(trifluoromethyl)-3,4-dihydroquinazolin-2(1H)-one], the EC50 turned out to be 146 nM.

For `O=c1ccncn1Cc1ccc2c(c1)NC(=S)N[C@]2(C#CC1CC1)C(F)(F)F` [Example 70, (S)-3-((4-(cyclopropylethynyl)-2-thioxo-4-(trifluoromethyl)-1,2,3,4-tetrahydroquinazolin-7-yl)methyl)pyrimidin-4(3H)-one], the EC50 is 93 nM.

In the case of `Cc1cn(Cc2cc3c(cc2F)[C@@](C#CC2CC2)(C(C)(F)F)NC(=O)N3)c(=O)c(N)n1` [Example 85, (S)-7-((3-amino-5-methyl-2-oxopyrazin-1(2H)-yl)methyl)-4-(cyclopropylethynyl)-4-(1,1-difluoroethyl)-6-fluoro-3,4-dihydroquinazolin-2(1H)-one], the EC50 turned out to be 14 nM.

As to `Nc1ccnn(Cc2ccc3c(c2)NC(=O)N[C@]3(C#CC2CC2)C(F)(F)F)c1=O` [Example 24, (S)-7-((5-amino-6-oxopyridazin-1(6H)-yl)methyl)-4-(cyclopropylethynyl)-4-(trifluoromethyl)-3,4-dihydroquinazolin-2(1H)-one], the EC50 is 210 nM.

Regarding `Nc1c(Cl)ncn(Cc2ccc3c(c2)NC(=O)N[C@]3(C#CC2CC2)C(F)(F)F)c1=O` [Example 40, (S)-7-((5-amino-4-chloro-6-oxopyrimidin-1(6H)-yl)methyl)-4-(cyclopropylethynyl)-4-(trifluoromethyl)-3,4-dihydroquinazolin-2(1H)-one], the EC50 was 65 nM.

Turning to `CC(C)C#CC1(C(F)(F)F)NC(=O)Nc2cc(Cn3cnccc3=O)ccc21` (racemic) [Example 77, (S)-4-(3-methylbut-1-yn-1-yl)-7-((6-oxopyrimidin-1(6H)-yl)methyl)-4-(trifluoromethyl)-3,4-dihydroquinazolin-2(1H)-one AND (R)-4-(3-methylbut-1-yn-1-yl)-7-((6-oxopyrimidin-1(6H)-yl)methyl)-4-(trifluoromethyl)-3,4-dihydroquinazolin-2(1H)-one], the EC50 is 87 nM.

As to `O=C1Nc2cc(Cn3ncccc3=O)ccc2[C@@](C#CC2CC2)(C(F)(F)F)N1` [Example 23, (S)-4-(cyclopropylethynyl)-7-((6-oxopyridazin-1(6H)-yl)methyl)-4-(trifluoromethyl)-3,4-dihydroquinazolin-2(1H)-one], the EC50 is 250 nM.
